One molecule from ChEMBL document CHEMBL5705893, “Targeting the mitotic checkpoint for cancer therapy with NMS-P715, an inhibitor of MPS1 kinase” (Cancer Res, 2010) can be followed below.

Molecules are shown by their SMILES. Active and inactive are the calls of the source. The calls are words filed in the database; no cut-off is given here.

The subject of data set [1] is HeLa. The data set can be described thus: Effect on HEC1 level in human nocodazole-arrested HeLa cells at 1 micromol/L in presence of MG132. The format is functional, cell-based. The note with it: dose 1.0 µmol/L.
Data set [2] concerns the target Proto-oncogene tyrosine-protein kinase receptor Ret (Homo sapiens, UniProt P07949). The data set can be described thus: Inhibition of recombinant RET (unknown origin).
Data set [3] concerns L-363. As to the kind of experiment: Antiproliferative activity against human L-363 cells assessed as inhibition of cell growth incubated for 72 hrs by celltiter-glo assay. The class given is functional, cell-based. The note with it: L-363, 72 h.
Data set [4] has as its system Jurkat. As to the kind of experiment: Antiproliferative activity against human Jurkat cells assessed as inhibition of cell growth incubated for 72 hrs by celltiter-glo assay. The format is functional, cell-based.
Data set [5] deals with SK-MEL-5. The data set can be described thus: Antiproliferative activity against human SK-MEL-5 cells assessed as inhibition of cell growth incubated for 72 hrs by celltiter-glo assay. The settings on record: SK-MEL-5, 72 h. The class given is functional, cell-based.
Data set [6] deals with SNB-19. The data set can be described thus: Antiproliferative activity against human SNB-19 cells assessed as inhibition of cell growth incubated for 72 hrs by celltiter-glo assay. The note with it: SNB-19, 72 h. The format is functional, cell-based.
Data set [7] deals with HCT-116. As to the kind of experiment: Induction of apoptosis in human HCT-116 cells at 1 micromol/L incubated for 24 to 72 hrs by FACS/PI staining based flow cytometric analysis. The format is functional. The note with it: dose 1 µmol/L; time 24-72 hrs; at 1 µM.
In data set [8] the test system is NCI-H1770. As to the kind of experiment: Antiproliferative activity against human NCI-H1770 cells assessed as inhibition of cell growth incubated for 72 hrs by celltiter-glo assay. The note with it: NCI-H1770, 72 h. The class given is functional, cell-based.
The test system of data set [9] is HeLa. As to the kind of experiment: Effect on BUBR1 level in human nocodazole-arrested HeLa cells at 1 micromol/L in presence of MG132. The format is functional, cell-based. The settings on record: dose 1.0 µmol/L.
Data set [10] deals with PC-3. The data set can be described thus: Antiproliferative activity against human PC-3 cells assessed as inhibition of cell growth incubated for 72 hrs by celltiter-glo assay. The class given is functional, cell-based. The settings on record: PC-3, 72 h.
For data set [11], the target named is Mitogen-activated protein kinase 14 (Homo sapiens, UniProt Q16539). As to the kind of experiment: Inhibition of recombinant P38alpha (unknown origin).
Mitogen-activated protein kinase 14, sequence (Q16539 whole entry): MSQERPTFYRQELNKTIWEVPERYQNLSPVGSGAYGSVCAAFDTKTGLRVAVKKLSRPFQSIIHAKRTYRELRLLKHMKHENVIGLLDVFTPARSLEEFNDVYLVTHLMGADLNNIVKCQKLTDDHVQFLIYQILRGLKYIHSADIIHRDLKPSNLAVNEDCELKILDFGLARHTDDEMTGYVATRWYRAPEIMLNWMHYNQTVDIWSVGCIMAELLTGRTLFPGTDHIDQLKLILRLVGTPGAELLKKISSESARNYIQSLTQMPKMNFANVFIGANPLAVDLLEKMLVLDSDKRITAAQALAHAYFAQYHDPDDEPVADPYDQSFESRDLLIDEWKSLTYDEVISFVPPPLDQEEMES
Data set [12] relates to A2780. The data set can be described thus: Cell cycle arrest in human A2780 cells assessed as accumulation of cells at sub-G1 phase at 0.2 to 1 micromol/L incubated for 72 hrs by FACS/PI staining based flow cytometric analysis. The format is functional. The settings on record: dose 0.2-1 µmol/L.
Data set [13] is described as follows: Cmax in Athymic nu-nu mouse at 10 mg/kg, po measured upto 24 hrs by LC-MS/MS analysis. The format is ADME, organism-based. The settings on record: in vivo.
Data set [14] relates to LNCaP. As to the kind of experiment: Antiproliferative activity against human LNCaP cells assessed as inhibition of cell growth incubated for 72 hrs by celltiter-glo assay. The class given is functional, cell-based.

Proto-oncogene tyrosine-protein kinase receptor Ret, sequence (P07949 whole entry): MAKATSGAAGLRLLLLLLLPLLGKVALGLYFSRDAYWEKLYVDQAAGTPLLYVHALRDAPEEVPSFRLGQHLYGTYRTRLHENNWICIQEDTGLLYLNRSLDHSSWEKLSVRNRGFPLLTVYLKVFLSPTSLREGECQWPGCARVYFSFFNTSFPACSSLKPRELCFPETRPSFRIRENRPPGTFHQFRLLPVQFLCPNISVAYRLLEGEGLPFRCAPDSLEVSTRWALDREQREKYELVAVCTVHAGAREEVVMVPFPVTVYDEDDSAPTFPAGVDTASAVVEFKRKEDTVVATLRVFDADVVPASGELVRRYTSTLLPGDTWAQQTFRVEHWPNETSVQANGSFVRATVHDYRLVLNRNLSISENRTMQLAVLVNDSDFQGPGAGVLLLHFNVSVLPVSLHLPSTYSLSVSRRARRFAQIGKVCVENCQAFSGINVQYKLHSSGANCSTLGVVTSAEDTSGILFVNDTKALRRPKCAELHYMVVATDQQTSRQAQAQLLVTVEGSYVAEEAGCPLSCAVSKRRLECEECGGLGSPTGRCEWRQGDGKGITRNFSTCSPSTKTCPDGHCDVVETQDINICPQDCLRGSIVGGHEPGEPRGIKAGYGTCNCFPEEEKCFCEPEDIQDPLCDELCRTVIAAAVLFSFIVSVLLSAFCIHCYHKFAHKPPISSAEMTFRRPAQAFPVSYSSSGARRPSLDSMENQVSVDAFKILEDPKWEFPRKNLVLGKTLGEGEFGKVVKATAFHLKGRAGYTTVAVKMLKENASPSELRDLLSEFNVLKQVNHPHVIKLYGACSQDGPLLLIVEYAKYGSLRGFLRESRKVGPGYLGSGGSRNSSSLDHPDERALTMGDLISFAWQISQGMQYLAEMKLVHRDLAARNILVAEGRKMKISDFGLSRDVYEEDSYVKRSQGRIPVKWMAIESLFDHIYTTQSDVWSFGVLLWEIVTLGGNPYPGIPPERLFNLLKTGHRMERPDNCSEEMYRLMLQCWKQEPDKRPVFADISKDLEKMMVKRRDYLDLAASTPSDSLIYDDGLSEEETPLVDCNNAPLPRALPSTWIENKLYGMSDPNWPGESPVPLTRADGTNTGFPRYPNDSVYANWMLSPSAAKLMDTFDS

With `CCc1cccc(CC)c1NC(=O)c1nn(C)c2c1CCc1cnc(Nc3ccc(C(=O)NC4CCN(C)CC4)cc3OC(F)(F)F)nc1-2`, the result in [1], in data set [9] and in [12] was Active. Further, the IC50 in data set [2] is > 10 µM; in data set [3], 1.61 µM; in data set [4] it was 3.61 µM; in data set [5] it was 4.49 µM; in data set [6] it was 6.93 µM; in data set [8], 4.42 µM. The IC50 in data set [10] was 1.99 µM; in data set [11], > 10 µM; in [14], 3.07 µM. This molecule also displayed an Activity in data set [7] of 100%. The Cmax in data set [13] was 600 nM.
